Where a name gives a salt, the structure may show the parent alone.
target: T1, σ1-receptor (Cavia porcellus, UniProt Q60492); assay: σ1-receptor binding assay, [3H]-(+)-pentazocine, guinea pig brain membranes; settings: radioligand [3H]-(+)-pentazocine at 5.0 nM; guinea pig brain membrane; 150 min at 37° C.; nonspecific binding with 1 μM haloperidol
T1 construct: Guinea pig brains were homogenized in 10 vols; (w/v) of Tris-HCl 50 mM 0.32 M sucrose; from tissue; host or cells: guinea pig brain membranes
Protocol: Brain membrane preparation and binding assays for the σ1-receptor were performed as described (DeHaven-Hudkins, D. L., L. C. Fleissner, and F. Y. Ford-Rice, 1992, Characterization of the binding of [^3H](+)pentazocine to σ recognition sites in guinea pig brain, Eur. J. Pharmacol. 227, 371-378) with some modifications. Guinea pig brains were homogenized in 10 vols. (w/v) of Tris-HCl 50 mM 0.32 M sucrose, pH 7.4, with a Kinematica Polytron PT 3000 at 15000 r.p.m. for 30 s. The homogenate was centrifuged at 1000 g for 10 min at 4° C. and the supernatants collected and centrifuged again at 48000 g for 15 min at 4° C. The pellet was resuspended in 10 volumes of Tris-HCl buffer (50 mM, pH 7.4), incubated at 37° C. for 30 min, and centrifuged at 48000 g for 20 min at 4° C. Following this, the pellet was re-suspended in fresh Tris-HCl buffer (50 mM, pH 7.4) and stored on ice until use.
The radioligand used was [^3H]-(+)-pentazocine at 5.0 nM and the final volume was 200 μl. The incubation was initiated with the addition of 100 μl of membrane at a final tissue concentration of approximately 5 mg tissue net weight/mL and the incubation time was 150 m. at 37° C. After incubation, the membranes were collected onto pretreated glass fiber filterplate (MultiScreen-FC, Millipore), with polyethylenimine 0.1%. The filters were washed two times with 200 μl of washing buffer (50 mM Tris Cl, pH=7.4) and then 25 μl of Ecoscint H liquid scintillation cocktail were added. Microplates were allowed to set for several hours and then quantified by liquid scintillation spectrophotometry (1450 Microbeta, Wallac). Nonspecific binding was determined with 1 μM haloperidol.

T1 sequence (Q60492 whole entry): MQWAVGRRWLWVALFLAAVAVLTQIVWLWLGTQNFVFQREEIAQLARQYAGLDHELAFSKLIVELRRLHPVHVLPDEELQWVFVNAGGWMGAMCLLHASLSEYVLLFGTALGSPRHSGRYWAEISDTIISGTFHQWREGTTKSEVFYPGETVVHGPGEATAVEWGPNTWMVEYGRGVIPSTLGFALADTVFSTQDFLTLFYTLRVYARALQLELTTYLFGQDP

SMILES | Ki [µM]
c1c(OCCCCN2CCCCC2)nn2c1CCCC2 [Example 60, 2-(4-(piperidin-1-yl)butoxy)-4,5,6,7-tetrahydropyrazolo[1,5-a]pyridine oxalate] | 0.0407
c1c(OCCCCN2CCCCC2)nn2c1CCCC2 [Example 61, 2-(4-(piperidin-1-yl)butoxy)-4,5,6,7-tetrahydropyrazolo[1,5-a]pyridine maleate] | 0.0285
c1ccc(C2CCN(CCCCOc3cc4n(n3)CCCC4)CC2)cc1 [Example 63, 2-(4-(4-phenylpiperidin-1-yl)butoxy)-4,5,6,7-tetrahydropyrazolo[1,5-a]pyridine oxalate] | 0.0092
CN(CCOc1cc2n(n1)CCCC2)Cc1ccccc1 [Example 64, N-benzyl-N-methyl-2-(4,5,6,7-tetrahydropyrazolo[1,5-a]pyridin-2-yloxy)ethanamine oxalate] | 0.0154
CC(C)(C)C1CCN(CCCCOc2cc3n(n2)CCCC3)CC1 [Example 65, 2-(4-(4-tert-butylpiperidin-1-yl)butoxy)-4,5,6,7-tetrahydropyrazolo[1,5-a]pyridine maleate] | 0.0083
CC(C)(C)C1CCN(CCOc2cc3n(n2)CCCC3)CC1 [Example 66, 2-(2-(4-tert-butylpiperidin-1-yl)ethoxy)-4,5,6,7-tetrahydropyrazolo[1,5-a]pyridine maleate] | 0.0055
CN(CCCCOc1cc2n(n1)CCCC2)C1CCN(Cc2ccccc2)CC1 [Example 67, 1-benzyl-N-methyl-N-(4-(4,5,6,7-tetrahydropyrazolo[1,5-a]pyridin-2-yloxy)butyl)piperidin-4-amine dimaleate] | 0.0657
c1c(OCCCCN2CCC3CCCCC3C2)nn2c1CCCC2 (stereo not shown) [Example 68, 2-(4-(4,5,6,7-tetrahydropyrazolo[1,5-a]pyridin-2-yloxy)butyl)decahydroisoquinoline maleate] | 0.0073
c1c(OCCCCN2CCN(C3CCCCC3)CC2)nn2c1CCCC2 [Example 69, 2-(4-(4-cyclohexylpiperazin-1-yl)butoxy)-4,5,6,7-tetrahydropyrazolo[1,5-a]pyridine maleate] | 0.0416
c1ccc2c(c1)COC21CCN(CCCCOc2cc3n(n2)CCCC3)CC1 [Example 70, 1′-(4-(4,5,6,7-tetrahydropyrazolo[1,5-a]pyridin-2-yloxy)butyl)-3H-spiro[isobenzofuran-1,4′-piperidine]maleate] | 0.0216
c1c(OCCN2CCN(C3CCCCC3)CC2)nn2c1CCCC2 [Example 71, 2-(2-(4-cyclohexylpiperazin-1-yl)ethoxy)-4,5,6,7-tetrahydropyrazolo[1,5-a]pyridine maleate] | 0.0393
CN(CCOc1cc2n(n1)CCCC2)C1CCN(Cc2ccccc2)CC1 [Example 72, 1-benzyl-N-methyl-N-(2-(4,5,6,7-tetrahydropyrazolo[1,5-a]pyridin-2-yloxy)ethyl)piperidin-4-amine maleate] | 0.035
c1ccc2c(c1)COC21CCN(CCOc2cc3n(n2)CCCC3)CC1 [Example 74, 1′-(2-(4,5,6,7-tetrahydropyrazolo[1,5-a]pyridin-2-yloxy)ethyl)-3H-spiro[isobenzofuran-1,4′-piperidine]maleate] | 0.0306
c1c(OCCCCN2CCCCCC2)nn2c1CCCC2 [Example 78, 2-(4-(azepan-1-yl)butoxy)-4,5,6,7-tetrahydropyrazolo[1,5-a]pyridine maleate] | 0.0261
CC(C)N1CCN(CCCCOc2cc3n(n2)CCCC3)CC1 [Example 92, 2-(4-(4-isopropylpiperazin-1-yl)butoxy)-4,5,6,7-tetrahydropyrazolo[1,5-a]pyridine maleate] | 0.182
CN1CCN(CCCCOc2cc3n(n2)CCCC3)CC1 [Example 93, 2-(4-(4-methylpiperazin-1-yl)butoxy)-4,5,6,7-tetrahydropyrazolo[1,5-a]pyridine maleate] | 0.167
CN1CCCN(CCCCOc2cc3n(n2)CCCC3)CC1 [Example 96, 2-(4-(4-methyl-1,4-diazepan-1-yl)butoxy)-4,5,6,7-tetrahydropyrazolo[1,5-a]pyridine maleate] | 0.18
CCN1CCN(CCCCOc2cc3n(n2)CCCC3)CC1 [Example 98, 2-(4-(4-ethylpiperazin-1-yl)butoxy)-4,5,6,7-tetrahydropyrazolo[1,5-a]pyridine maleate] | 0.139

Further lines, results first:

Ki [µM] | SMILES
0.0317 | c1c(OCCNC23CC4CC(CC(C4)C2)C3)nn2c1CCCC2 [Example 75, N-adamantyl-2-(4,5,6,7-tetrahydropyrazolo[1,5-a]pyridin-2-yloxy)ethanamine maleate]
0.025 | CCCN(CCCCOc1cc2n(n1)CCCC2)CC1CC1 [Example 80, N-(cyclopropylmethyl)-N-propyl-4-(4,5,6,7-tetrahydropyrazolo[1,5-a]pyridin-2-yloxy)butan-1-amine maleate]
0.0128 | c1c(OCCCCN2CC[C@H]3CCCC[C@@H]3C2)nn2c1CCCC2 [Example 81, (4aR,8aS)-2-(4-(4,5,6,7-tetrahydropyrazolo[1,5-a]pyridin-2-yloxy)butyl)decahydroisoquinoline maleate]
0.0081 | CN(CCCCOc1cc2n(n1)CCCC2)Cc1ccccc1 [Example 82, N-benzyl-N-methyl-4-(4,5,6,7-tetrahydropyrazolo[1,5-a]pyridin-2-yloxy)butan-1-amine maleate]
0.0348 | c1c(OCCCCNC23CC4CC(CC(C4)C2)C3)nn2c1CCCC2 [Example 83, N-adamantyl-4-(4,5,6,7-tetrahydropyrazolo[1,5-a]pyridin-2-yloxy)butan-1-amine maleate]
0.0157 | c1ccc2c(c1)CCN(CCCCOc1cc3n(n1)CCCC3)C2 [Example 84, 2-(4-(4,5,6,7-tetrahydropyrazolo[1,5-a]pyridin-2-yloxy)butyl)-1,2,3,4-tetrahydroisoquinoline maleate]
0.0425 | c1c(OCCCCNC2CCCCC2)nn2c1CCCC2 [Example 85, N-(4-(4,5,6,7-tetrahydropyrazolo[1,5-a]pyridin-2-yloxy)butyl)cyclohexanamine maleate]
0.0084 | c1c(OCCCCN2CCSCC2)nn2c1CCCC2 [Example 86, 4-(4-(4,5,6,7-tetrahydropyrazolo[1,5-a]pyridin-2-yloxy)butyl)thiomorpholine maleate]
0.0033 | c1c(OCCN2CC[C@H]3CCCC[C@@H]3C2)nn2c1CCCC2 [Example 87, (4aR,8aS)-2-(2-(4,5,6,7-tetrahydropyrazolo[1,5-a]pyridin-2-yloxy)ethyl)decahydroisoquinoline maleate]
0.0101 | c1c(OCCCCN2CCCOCC2)nn2c1CCCC2 [Example 89, 4-(4-(4,5,6,7-tetrahydropyrazolo[1,5-a]pyridin-2-yloxy)butyl)-1,4-oxazepane maleate]
0.0285 | CCCN(CCOc1cc2n(n1)CCCC2)CC1CC1 [Example 90, N-(cyclopropylmethyl)-N-(2-(4,5,6,7-tetrahydropyrazolo[1,5-a]pyridin-2-yloxy)ethyl)propan-1-amine maleate]
0.195 | CC(C)N1CCN(CCOc2cc3n(n2)CCCC3)CC1 [Example 91, 2-(2-(4-isopropylpiperazin-1-yl)ethoxy)-4,5,6,7-tetrahydropyrazolo[1,5-a]pyridine maleate]
0.0972 | c1c(OCCCN2CCCCC2)nn2c1CCCC2 [Example 99, 2-(3-(piperidin-1-yl)propoxy)-4,5,6,7-tetrahydropyrazolo[1,5-a]pyridine maleate]

From patent publication US9487513B2, “Substituted pyrazolo[1,5-A]pyridines, their preparation and use as medicaments” (LABORATORIOS DEL DR. ESTEVE S.A., priority 2012, dated 2016)
